Where two headings read alike, the source gives them in different places.
Tests used:
Phytophthora infestans = format: in vivo; settings: tomato leaves, infected next day, assessed after 6 days
Plasmopara viticola = experiment: Persistency against Peronospora of grapevines caused by Plasmopara viticola; format: in vivo; settings: grapevine leaves, inoculated 3 days after spraying

| SMILES | Efficacy in % of the untreated control (Phytophthora infestans; 1.9 ppm in the spray liquor) | Efficacy in % of the untreated control (Phytophthora infestans; 3.75 ppm in the spray liquor) | Efficacy in % of the untreated control (Phytophthora infestans; 7.5 ppm in the spray liquor) | Efficacy in % of the untreated control (Plasmopara viticola; 1.9 ppm in the spray liquor) | Efficacy in % of the untreated control (Plasmopara viticola; 3.75 ppm in the spray liquor) | Efficacy in % of the untreated control (Phytophthora infestans; 0.19 ppm in the spray liquor) | Efficacy in % of the untreated control (Phytophthora infestans; 0.375 ppm in the spray liquor) | Efficacy in % of the untreated control (Phytophthora infestans; 0.75 ppm in the spray liquor) | Efficacy in % of the untreated control (Phytophthora infestans; 1.5 ppm in the spray liquor) | Efficacy in % of the untreated control (Phytophthora infestans; 3 ppm in the spray liquor) | Efficacy in % of the untreated control (Plasmopara viticola; 0.19 ppm in the spray liquor) | Efficacy in % of the untreated control (Plasmopara viticola; 0.375 ppm in the spray liquor) | Efficacy in % of the untreated control (Plasmopara viticola; 1.5 ppm in the spray liquor) | Efficacy in % of the untreated control (Plasmopara viticola; 3 ppm in the spray liquor) |
| --- | --- | --- | --- | --- | --- | --- | --- | --- | --- | --- | --- | --- | --- | --- |
| N#Cc1sc2c(=O)c3ccccc3c(=O)c=2sc1C#N [II, dithianon] | 0% | 0% | 0% | 48% | 58% |  |  |  |  |  |  |  |  |  |
| CC(C)OC(=O)N[C@H](C(=O)N[C@H](C)c1nc2ccc(F)cc2s1)C(C)C [Ia] |  |  |  |  |  | 56% | 67% | 78% | 83% | 89% | 48% | 58% | 79% | 84% |

Reference: patent US20050256085A1, “Fungicidal mixtures” (priority 2002, published 2005)
